Measurements: US20250381195A1, “Methods of Treating Diabetic Macular Edema” (UNM Rainforest Innovations, priority 2024, published 2025)
Structures can show the parent of a compound that is named as a salt.

These molecules were tested on HRECs treated with VEGF (human retinal endothelial cells) (assay: in vitro permeability / Electrical Cell-Substrate Impedance Sensing (ECIS) assay). Settings: 50 ng/ml Rec. VEGF, compounds at 10 uM, resistance calculated at the end of 24 hrs.
Assay type: cell-based
Procedure: The 250-um diameter gold electrode measures the ion current in the cell layer and measures the resistance and how the barrier function is altered with VEGF and drug treatment.
The inventors used the Prestwick chemical library compounds, which consists of a total of 1520 library compounds to check their effectiveness to decrease permeability in HRECs treated with VEGF (FIG. 4). […] The in vitro permeability or Electrical Cell-Substrate Impedance Sensing (ECIS) assay was carried out using Applied biophysics Z theta instrument, using 96W10idf PET plates. The HRECs were first seeded on the plates and the cells were allowed to grow until the desired resistance was achieved (800-1200V), this usually takes 15-18 hrs. After that the cells were treated with 50 ng/ml Rec. VEGF and the compounds at 10 uM concentration. At the end of 24 hrs, the resistance was calculated (an increase in resistance implies decreased permeability).

SMILES | resistance of EC layer (an increase in resistance implies decreased permeability)
CN(C)CCN(Cc1cccs1)c1ccccn1 [Methapyrilene, methapyrilene] | increased resistance
CC(C(=O)O)c1ccc(C(=O)c2cccs2)cc1 (stereo not shown) [Suprofen, suprofen] | increased resistance
Cc1noc(NS(=O)(=O)c2ccc(N)cc2)c1C [Sulfisoxazole, sulfisoxazole] | increased resistance
N#Cc1ccc(Oc2ccc3c(c2)COB3O)cc1 [Crisaborole, crisaborole] | significant increase in resistance
CNCCCC1c2ccccc2C=Cc2ccccc21 [Protriptyline HCl, protriptyline] | significant increase in resistance
c1ccc2c(CC3=NCCN3)cccc2c1 [Naphazoline HCl, naphazoline] | increased resistance
O=[N+]([O-])c1ccc(O)c2ncccc12 [Nitroxolone, nitroxolone] | significant increase in resistance
OC[C@H]1O[C@@H](c2ccc(Cl)c(Cc3ccc(O[C@H]4CCOC4)cc3)c2)[C@H](O)[C@@H](O)[C@@H]1O [Empaglifozin, empagliflozin] | significant increase in resistance
CNCCCN1c2ccccc2CCc2ccccc21 [Desipramine HCl, desipramine] | significant increase in resistance
Cc1ccc(N(CC2=NCCN2)c2cccc(O)c2)cc1 [Phentolamine, phentolamine] | increased resistance
